Results from ChEMBL document CHEMBL5678809, “Preclinical characterization of GLPG0634, a selective inhibitor of JAK1, for the treatment of inflammatory diseases” (J Immunol, 2013).
The source made the active and inactive calls. The rule behind the calls is not given here.

Tests used:
Mus musculus [1] = test: Antiarthritic activity against collagen-induced arthritis DBA/1J mouse model assessed as MCP-3 level in serum at 50 mg/kg, po measured for 4 hrs by luminex analysis (reference value: 224 +/- 15.3 ng/ml); assay type: functional
[2] = biological target: Serine/threonine-protein kinase ULK2 (Homo sapiens) (UniProt Q8IYT8); test: Inhibition of ULK2 (unknown origin) at 1 uM relative to control
Homo sapiens [3] = species on record: Homo sapiens; test: Inhibition of MRCK (unknown origin) at 1 uM relative to control
[4] = biological target: Receptor tyrosine-protein kinase erbB-4 (Homo sapiens) (UniProt Q15303); test: Inhibition of ErbB4 (unknown origin) at 1 uM relative to control
[5] = biological target: Mitogen-activated protein kinase 12 (Homo sapiens, UniProt P53778); test: Inhibition of MAPK12 (unknown origin)
[6] = biological target: Mitogen-activated protein kinase 13 (Homo sapiens) (UniProt O15264); test: Inhibition of SAPK4 (unknown origin) at 1 uM relative to control
RPMI-8226 = test: Inhibition of human […] cell differentiation assessed as effect on IL-4 mRNA expression by RT-PCR analysis; assay type: functional, cell-based; details: dose 0.1-10 µM
[7] = biological target: Serine/threonine-protein kinase WNK2 (Homo sapiens) (UniProt Q9Y3S1); test: Inhibition of WNK2 (unknown origin) at 1 uM relative to control
[8] = biological target: Ephrin type-A receptor 8 (Homo sapiens) (UniProt P29322); test: Inhibition of EphA8 (unknown origin) at 1 uM relative to control
[9] = biological target: Serine/threonine-protein kinase N2 (Homo sapiens) (UniProt Q16513); test: Inhibition of PRK2 (unknown origin) at 1 uM relative to control
[10] = biological target: Tyrosine-protein kinase BTK (Homo sapiens, UniProt Q06187); test: Inhibition of BTK (unknown origin)
[11] = biological target: T1, Vascular endothelial growth factor receptor 1 (Homo sapiens, UniProt P17948); test: Inhibition of Flt1 (unknown origin)
[12] = biological target: Dual specificity protein kinase CLK2 (Homo sapiens) (UniProt P49760); test: Inhibition of CLK2 (unknown origin) at 1 uM relative to control
[13] = biological target: Activated CDC42 kinase 1 (Homo sapiens) (UniProt Q07912); test: Inhibition of ACK1 (unknown origin) at 1 uM relative to control
[14] = Cmax in CD-1 mouse at 1 mg/kg, iv measured upto 8 hrs by LC-MS analysis; assay type: ADME, organism-based; details: in vivo
[15] = biological target: Serine/threonine-protein kinase Nek2 (Homo sapiens) (UniProt P51955); test: Inhibition of NEK2 (unknown origin) at 1 uM relative to control
[16] = Tmax in Sprague-Dawley rat at 5 mg/kg, po measured upto 24 hrs by LC-MS analysis; assay type: ADME, organism-based; details: in vivo
[17] = biological target: Serine/threonine-protein kinase tousled-like 2 (Homo sapiens) (UniProt Q86UE8); test: Inhibition of TLK2 (unknown origin) at 1 uM relative to control
[18] = biological target: Ribosomal protein S6 kinase alpha-3 (Homo sapiens) (UniProt P51812); test: Inhibition of Rsk2 (unknown origin) at 1 uM relative to control
[19] = biological target: Tyrosine-protein kinase Fyn (Homo sapiens) (UniProt P06241); test: Inhibition of Fyn (unknown origin) at 1 uM relative to control
[20] = biological target: Serine/threonine-protein kinase ULK3 (Homo sapiens) (UniProt Q6PHR2); test: Inhibition of ULK3 (unknown origin) at 1 uM relative to control
Mus musculus [21] = test: Antiarthritic activity against collagen-induced arthritis DBA/1J mouse model assessed as reduction in RANKL expression at 50 mg/kg, po measured for 4 hrs; assay type: functional, organism-based
[22] = biological target: Serine/threonine-protein kinase 10 (Homo sapiens) (UniProt O94804); test: Inhibition of LOK (unknown origin) at 1 uM relative to control
[23] = biological target: MAP kinase-activated protein kinase 2 (Homo sapiens) (UniProt P49137); test: Inhibition of MAPK2 (unknown origin) at 1 uM relative to control
[24] = biological target: Serine/threonine-protein kinase Chk1 (Homo sapiens) (UniProt O14757); test: Inhibition of CHK1 (unknown origin) at 1 uM relative to control
[25] = biological target: Serine/threonine-protein kinase PAK 2 (Homo sapiens) (UniProt Q13177); test: Inhibition of PAK2 (unknown origin) at 1 uM relative to control
[26] = biological target: T1, Vascular endothelial growth factor receptor 1; test: Inhibition of Flt1 (unknown origin) at 1 uM relative to control
[27] = biological target: Dual specificity mitogen-activated protein kinase kinase 1 (Homo sapiens) (UniProt Q02750); test: Inhibition of MEK1 (unknown origin) at 1 uM relative to control
Mus musculus [28] = test: Antiarthritic activity against collagen-induced arthritis DBA/1J mouse model assessed as reduction in MMP3 expression at 50 mg/kg, po measured for 4 hrs; assay type: functional, organism-based
Mus musculus [29] = test: Antiarthritic activity against collagen-induced arthritis DBA/1J mouse model assessed as bone degradation by measuring lesion score in hind paw at 50 mg/kg, po administered twice daily for 14 days by histological analysis; assay type: functional, organism-based; details: time 14.0 day
Homo sapiens [30] = species on record: Homo sapiens; test: Inhibition of PKB (unknown origin) at 1 uM relative to control
Mus musculus [31] = test: Antiarthritic activity against collagen-induced arthritis DBA/1J mouse model assessed as reduction in infiltration of F4/80+ macrophage cells in paw at 50 mg/kg, po administered twice daily for 14 days by immunohistochemistry analysis; assay type: functional, organism-based; details: time 14.0 day
Homo sapiens [32] = species on record: Homo sapiens; test: Inhibition of PKB3 (unknown origin) at 1 uM relative to control
Rattus norvegicus [33] = test: In vivo inhibition of JAK1 in Sprague-Dawley rat assessed as reduction in MX2 mRNA level at 1 to 10 mg/kg, po measured for 24 hrs by RT-PCR analysis; assay type: functional, organism-based; details: dose 1-10 mg/kg
[34] = biological target: Protein kinase C delta type (Homo sapiens) (UniProt Q05655); test: Inhibition of PKCd (unknown origin) at 1 uM relative to control
[35] = biological target: Rho-associated protein kinase 1 (Homo sapiens, UniProt Q13464); test: Inhibition of ROCK1 (unknown origin)
[36] = biological target: Serine/threonine-protein kinase 24 (Homo sapiens) (UniProt Q9Y6E0); test: Inhibition of MST3 (unknown origin) at 1 uM relative to control
Rattus norvegicus [37] = test: Antiarthritic activity against collagen-induced arthritis Dark Agouti rat model assessed as reduction in bone degradation by measuring larsen score administered 3 times a week and measured on day 7 by X-ray analysis; assay type: functional, organism-based; details: dose 3.0 mg/kg, time 7.0 day
[38] = biological target: Tyrosine-protein kinase CSK (Homo sapiens) (UniProt P41240); test: Inhibition of CSK (unknown origin) at 1 uM relative to control
[39] = biological target: Mitogen-activated protein kinase kinase kinase 3 (Homo sapiens, UniProt Q99759); test: Inhibition of MAP3K3 (unknown origin)
[40] = AUC (0 to 24 hrs) in CD-1 mouse at 1 mg/kg, iv measured upto 8 hrs by LC-MS analysis; assay type: ADME, organism-based; details: in vivo

T1 sequence (P17948 whole entry): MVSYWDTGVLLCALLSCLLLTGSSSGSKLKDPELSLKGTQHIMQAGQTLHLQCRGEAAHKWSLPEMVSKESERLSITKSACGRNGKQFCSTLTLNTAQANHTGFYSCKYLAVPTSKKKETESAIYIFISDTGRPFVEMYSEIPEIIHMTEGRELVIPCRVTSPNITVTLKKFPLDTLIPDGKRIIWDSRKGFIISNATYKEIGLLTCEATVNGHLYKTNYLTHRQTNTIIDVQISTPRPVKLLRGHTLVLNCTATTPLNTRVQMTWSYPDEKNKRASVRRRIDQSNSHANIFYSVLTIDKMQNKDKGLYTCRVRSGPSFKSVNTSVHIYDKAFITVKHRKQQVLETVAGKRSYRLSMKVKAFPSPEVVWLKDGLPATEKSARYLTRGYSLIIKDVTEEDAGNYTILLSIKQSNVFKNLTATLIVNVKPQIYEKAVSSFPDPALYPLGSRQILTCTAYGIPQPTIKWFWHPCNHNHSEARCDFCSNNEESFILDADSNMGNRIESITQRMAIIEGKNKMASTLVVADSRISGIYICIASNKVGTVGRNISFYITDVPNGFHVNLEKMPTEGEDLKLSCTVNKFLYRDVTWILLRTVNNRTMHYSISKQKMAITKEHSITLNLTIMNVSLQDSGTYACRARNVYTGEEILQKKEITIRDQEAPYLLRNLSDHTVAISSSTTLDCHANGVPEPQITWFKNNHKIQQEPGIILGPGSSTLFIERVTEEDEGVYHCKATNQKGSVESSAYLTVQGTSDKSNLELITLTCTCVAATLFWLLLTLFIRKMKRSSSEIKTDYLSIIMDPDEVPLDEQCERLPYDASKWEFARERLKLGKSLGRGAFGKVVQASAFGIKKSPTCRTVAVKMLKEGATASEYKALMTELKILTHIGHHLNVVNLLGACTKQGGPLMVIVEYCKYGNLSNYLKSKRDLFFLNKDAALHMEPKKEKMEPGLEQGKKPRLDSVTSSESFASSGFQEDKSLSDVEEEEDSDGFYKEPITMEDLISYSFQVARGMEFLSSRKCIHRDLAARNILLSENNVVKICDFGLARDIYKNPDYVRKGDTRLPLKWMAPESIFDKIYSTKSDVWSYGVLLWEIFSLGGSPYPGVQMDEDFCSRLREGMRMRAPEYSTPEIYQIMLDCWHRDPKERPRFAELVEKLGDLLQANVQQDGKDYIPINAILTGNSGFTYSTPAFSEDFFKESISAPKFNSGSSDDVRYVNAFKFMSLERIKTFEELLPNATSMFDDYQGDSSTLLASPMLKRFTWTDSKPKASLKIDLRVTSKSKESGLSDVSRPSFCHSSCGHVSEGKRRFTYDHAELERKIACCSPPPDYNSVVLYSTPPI
Chain of Mitogen-activated protein kinase 13 (Homo sapiens) (O15264 whole entry): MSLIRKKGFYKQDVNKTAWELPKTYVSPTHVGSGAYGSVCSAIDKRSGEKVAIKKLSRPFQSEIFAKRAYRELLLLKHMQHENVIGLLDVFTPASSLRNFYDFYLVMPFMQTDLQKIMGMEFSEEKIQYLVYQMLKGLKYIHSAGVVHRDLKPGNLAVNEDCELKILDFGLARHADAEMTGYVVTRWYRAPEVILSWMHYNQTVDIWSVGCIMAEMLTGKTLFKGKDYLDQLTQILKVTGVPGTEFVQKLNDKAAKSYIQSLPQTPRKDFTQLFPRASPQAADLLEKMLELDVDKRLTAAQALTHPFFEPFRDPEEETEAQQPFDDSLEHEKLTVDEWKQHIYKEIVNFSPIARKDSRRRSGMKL
Chain of Tyrosine-protein kinase CSK (Homo sapiens) (P41240 2-450 limits assumed): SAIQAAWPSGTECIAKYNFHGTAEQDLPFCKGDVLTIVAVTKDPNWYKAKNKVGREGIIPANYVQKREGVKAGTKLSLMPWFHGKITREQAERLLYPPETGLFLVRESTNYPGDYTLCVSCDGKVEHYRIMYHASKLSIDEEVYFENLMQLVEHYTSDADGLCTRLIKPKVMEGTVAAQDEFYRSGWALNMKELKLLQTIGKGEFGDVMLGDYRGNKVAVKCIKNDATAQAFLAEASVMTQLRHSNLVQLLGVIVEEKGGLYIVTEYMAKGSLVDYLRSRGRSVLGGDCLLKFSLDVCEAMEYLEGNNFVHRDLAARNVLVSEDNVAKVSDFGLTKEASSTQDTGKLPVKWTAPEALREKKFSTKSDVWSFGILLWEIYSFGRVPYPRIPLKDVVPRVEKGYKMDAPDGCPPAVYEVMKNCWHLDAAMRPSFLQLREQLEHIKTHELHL
Chain of Receptor tyrosine-protein kinase erbB-4 (Homo sapiens) (Q15303 whole entry): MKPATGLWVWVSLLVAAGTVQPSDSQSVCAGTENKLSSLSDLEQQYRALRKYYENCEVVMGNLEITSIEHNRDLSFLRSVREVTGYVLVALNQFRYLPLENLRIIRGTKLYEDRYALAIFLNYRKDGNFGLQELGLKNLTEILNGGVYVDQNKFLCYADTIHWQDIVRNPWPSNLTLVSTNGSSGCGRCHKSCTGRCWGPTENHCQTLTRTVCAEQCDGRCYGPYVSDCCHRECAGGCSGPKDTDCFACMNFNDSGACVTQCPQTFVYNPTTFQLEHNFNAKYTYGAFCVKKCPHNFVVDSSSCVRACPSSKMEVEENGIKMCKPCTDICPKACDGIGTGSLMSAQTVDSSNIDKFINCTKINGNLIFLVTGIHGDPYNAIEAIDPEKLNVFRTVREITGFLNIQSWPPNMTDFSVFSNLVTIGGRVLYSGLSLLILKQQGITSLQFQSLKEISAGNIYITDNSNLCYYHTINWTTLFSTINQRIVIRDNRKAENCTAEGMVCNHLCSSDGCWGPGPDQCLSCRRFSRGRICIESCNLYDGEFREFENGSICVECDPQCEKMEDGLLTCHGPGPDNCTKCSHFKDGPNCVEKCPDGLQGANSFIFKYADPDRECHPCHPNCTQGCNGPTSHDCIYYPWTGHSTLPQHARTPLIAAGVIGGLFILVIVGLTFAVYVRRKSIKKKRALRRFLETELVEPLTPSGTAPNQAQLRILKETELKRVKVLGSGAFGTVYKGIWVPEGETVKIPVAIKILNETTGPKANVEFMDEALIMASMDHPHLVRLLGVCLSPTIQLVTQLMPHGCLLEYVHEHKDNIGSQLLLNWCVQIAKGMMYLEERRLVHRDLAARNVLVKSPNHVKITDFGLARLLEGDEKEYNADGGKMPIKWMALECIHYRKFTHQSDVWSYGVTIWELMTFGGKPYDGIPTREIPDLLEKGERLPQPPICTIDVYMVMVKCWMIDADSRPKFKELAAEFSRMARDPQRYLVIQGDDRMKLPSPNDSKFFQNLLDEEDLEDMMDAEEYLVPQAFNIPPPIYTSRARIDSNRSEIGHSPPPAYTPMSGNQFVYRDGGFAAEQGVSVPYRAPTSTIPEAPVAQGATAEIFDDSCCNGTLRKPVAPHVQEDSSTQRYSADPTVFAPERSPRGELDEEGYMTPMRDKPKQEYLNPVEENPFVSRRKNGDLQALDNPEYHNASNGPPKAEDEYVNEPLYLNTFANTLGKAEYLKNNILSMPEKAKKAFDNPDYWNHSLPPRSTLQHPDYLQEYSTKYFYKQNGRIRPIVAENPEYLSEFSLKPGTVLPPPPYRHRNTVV
Chain of Tyrosine-protein kinase Fyn (Homo sapiens) (P06241 2-537 limits assumed): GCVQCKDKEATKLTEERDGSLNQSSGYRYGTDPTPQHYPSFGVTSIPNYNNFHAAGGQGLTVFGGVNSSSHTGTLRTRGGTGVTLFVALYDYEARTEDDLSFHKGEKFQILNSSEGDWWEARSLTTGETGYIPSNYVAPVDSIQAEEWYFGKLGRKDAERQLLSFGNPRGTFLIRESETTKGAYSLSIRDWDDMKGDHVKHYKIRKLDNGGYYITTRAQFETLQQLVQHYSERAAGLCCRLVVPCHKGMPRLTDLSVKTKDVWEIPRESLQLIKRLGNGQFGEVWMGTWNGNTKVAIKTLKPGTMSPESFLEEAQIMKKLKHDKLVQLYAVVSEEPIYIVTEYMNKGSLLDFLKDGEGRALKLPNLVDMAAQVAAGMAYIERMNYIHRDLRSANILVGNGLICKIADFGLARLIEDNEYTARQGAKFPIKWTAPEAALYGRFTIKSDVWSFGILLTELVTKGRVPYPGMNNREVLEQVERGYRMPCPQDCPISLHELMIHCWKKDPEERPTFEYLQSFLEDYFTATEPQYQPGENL
Chain of Ribosomal protein S6 kinase alpha-3 (Homo sapiens) (P51812 whole entry): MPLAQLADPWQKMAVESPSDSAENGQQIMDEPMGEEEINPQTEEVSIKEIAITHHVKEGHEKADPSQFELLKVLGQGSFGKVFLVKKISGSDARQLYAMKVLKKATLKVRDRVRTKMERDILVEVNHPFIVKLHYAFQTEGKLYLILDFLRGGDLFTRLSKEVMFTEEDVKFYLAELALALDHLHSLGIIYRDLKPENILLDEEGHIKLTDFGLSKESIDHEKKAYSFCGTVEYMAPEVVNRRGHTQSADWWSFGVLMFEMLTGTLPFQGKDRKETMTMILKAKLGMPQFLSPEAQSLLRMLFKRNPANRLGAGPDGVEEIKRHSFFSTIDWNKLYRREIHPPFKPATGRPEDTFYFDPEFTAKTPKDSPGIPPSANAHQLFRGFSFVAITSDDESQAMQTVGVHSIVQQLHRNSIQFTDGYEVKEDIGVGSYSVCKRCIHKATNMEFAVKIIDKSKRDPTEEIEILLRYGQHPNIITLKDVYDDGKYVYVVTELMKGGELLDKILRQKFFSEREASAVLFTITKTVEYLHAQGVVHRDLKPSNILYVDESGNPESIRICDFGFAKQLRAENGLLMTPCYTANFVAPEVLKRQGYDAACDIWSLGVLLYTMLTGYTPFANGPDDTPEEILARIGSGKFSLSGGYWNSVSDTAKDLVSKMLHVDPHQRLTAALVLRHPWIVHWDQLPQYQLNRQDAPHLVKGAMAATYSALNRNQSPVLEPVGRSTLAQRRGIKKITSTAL

Question: For `O=C(Nc1nc2cccc(-c3ccc(CN4CCS(=O)(=O)CC4)cc3)n2n1)C1CC1` [FILGOTINIB], which Activity (Mus musculus [1]) is on record?
Answer: Its Activity is 153.8 ng/mL.

Question: What about the inhibition [2] of the same compound?
Answer: The inhibition was -8%.

Question: And the inhibition (Homo sapiens [3])?
Answer: The inhibition was -3%.

Question: What about the inhibition [4] of the same compound?
Answer: The inhibition was -5%.

Question: And the IC50 [5]?
Answer: The IC50 was over 10 µM.

Question: And the inhibition [6]?
Answer: The inhibition was -10%.

Question: And the inhibition (RPMI-8226)?
Answer: Its inhibition is “Dose-Dependent Effect”.

Question: And the inhibition [7]?
Answer: Its inhibition is -1%.

Question: What about the inhibition [8] of the same compound?
Answer: Its inhibition is 1%.

Question: And the inhibition [9]?
Answer: Its inhibition is -8%.

Question: What about the IC50 [10] of the same compound?
Answer: The IC50 was over 10 µM.

Question: What about the IC50 [11] of the same compound?
Answer: Its IC50 is 1.33 µM.

Question: And the inhibition [12]?
Answer: Its inhibition is 10%.

Question: What about the inhibition [13] of the same compound?
Answer: Its inhibition is 17%.

Question: What about the Cmax [14] of the same compound?
Answer: Its Cmax is 0.637 µg/mL.

Question: What about the inhibition [15] of the same compound?
Answer: The inhibition was -10%.

Question: And the Tmax [16]?
Answer: Its Tmax is 2.2 h.

Question: What about the inhibition [17] of the same compound?
Answer: Its inhibition is -6%.

Question: And the inhibition [18]?
Answer: Its inhibition is 1%.

Question: And the inhibition [19]?
Answer: Its inhibition is 0%.

Question: What about the inhibition [20] of the same compound?
Answer: The inhibition was 4%.

Question: And the Activity (Mus musculus [21])?
Answer: The Activity was “Active”.

Question: What about the inhibition [22] of the same compound?
Answer: Its inhibition is -3%.

Question: What about the inhibition [23] of the same compound?
Answer: Its inhibition is 0%.

Question: What about the inhibition [24] of the same compound?
Answer: Its inhibition is 10%.

Question: And the inhibition [25]?
Answer: Its inhibition is 3%.

Question: What about the inhibition [26] of the same compound?
Answer: The inhibition was 37%.

Question: And the inhibition [27]?
Answer: The inhibition was -3%.

Question: What about the Activity (Mus musculus [28]) of the same compound?
Answer: The Activity was “Active”.

Question: And the Activity (Mus musculus [29])?
Answer: The Activity was “Active”.

Question: And the inhibition (Homo sapiens [30])?
Answer: Its inhibition is -3%.

Question: What about the Activity (Mus musculus [31]) of the same compound?
Answer: The Activity was “Active”.

Question: And the inhibition (Homo sapiens [32])?
Answer: Its inhibition is -6%.

Question: And the inhibition (Rattus norvegicus [33])?
Answer: Its inhibition is “Active”.

Question: And the inhibition [34]?
Answer: Its inhibition is -10%.

Question: What about the IC50 [35] of the same compound?
Answer: Its IC50 is over 10 µM.

Question: And the inhibition [36]?
Answer: Its inhibition is 0%.

Question: What about the Activity (Rattus norvegicus [37]) of the same compound?
Answer: Its Activity is “Dose-Dependent Effect”.

Question: And the inhibition [38]?
Answer: The inhibition was 3%.

Question: And the IC50 [39]?
Answer: The IC50 was over 10 µM.

Question: What about the AUC [40] of the same compound?
Answer: Its AUC is 0.347 µg·h/mL.
